For the experiment, the target named is T1, glucocorticoid receptor (Homo sapiens, UniProt P04150).
T1 construct: endogenous in cells
T1 sequence (P04150 1-777): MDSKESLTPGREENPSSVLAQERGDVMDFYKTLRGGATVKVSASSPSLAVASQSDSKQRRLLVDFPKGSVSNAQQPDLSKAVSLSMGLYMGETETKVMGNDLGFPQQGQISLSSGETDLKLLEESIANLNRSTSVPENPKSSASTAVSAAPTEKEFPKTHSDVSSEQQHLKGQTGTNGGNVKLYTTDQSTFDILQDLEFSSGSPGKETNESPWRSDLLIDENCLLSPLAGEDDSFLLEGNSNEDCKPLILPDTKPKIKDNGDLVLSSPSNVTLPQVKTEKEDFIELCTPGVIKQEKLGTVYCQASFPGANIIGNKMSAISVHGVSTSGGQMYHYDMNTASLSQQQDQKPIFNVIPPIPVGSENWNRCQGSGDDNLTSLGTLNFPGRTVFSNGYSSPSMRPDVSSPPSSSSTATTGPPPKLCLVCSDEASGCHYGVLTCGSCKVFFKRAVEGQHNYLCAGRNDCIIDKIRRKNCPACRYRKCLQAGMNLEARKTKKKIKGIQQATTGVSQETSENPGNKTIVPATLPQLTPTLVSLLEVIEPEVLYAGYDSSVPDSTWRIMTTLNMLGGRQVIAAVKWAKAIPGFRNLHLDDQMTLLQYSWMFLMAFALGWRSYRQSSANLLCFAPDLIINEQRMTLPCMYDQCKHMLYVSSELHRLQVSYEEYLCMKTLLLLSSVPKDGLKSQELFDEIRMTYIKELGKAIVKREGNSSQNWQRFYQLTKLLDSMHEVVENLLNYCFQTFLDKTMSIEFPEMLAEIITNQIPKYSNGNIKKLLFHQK
Kind of experiment: Ligand binding assay (GR BIND). In a few lines: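 Cytosol from freeze–thawed cells in TEGM (pH 7.2, 10 mM molybdate) was incubated overnight at 4 °C with compound and [3H]-dexamethasone trace (added as 6 nM solution), 2% EtOH final. Bound ligand was captured on hydroxylapatite, filtered, washed and scintillation counted. Values were calculated with dexamethasone as reference.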

Broadly, the Ki is the equilibrium dissociation constant of an inhibitor or competing ligand from its target. A low value points to higher affinity. In turn, `COC(=O)c1ccccc1S(=O)(=O)N(C[C@H]1CCC2=Cc3c(cnn3-c3ccc(F)cc3)C[C@@]21C)C[C@H](C)O` [Example 187, methyl 2-({{[(4αR,5S)-1-(4-fluorophenyl)-4α-methyl-1,4,4α,5,6,7-hexahydrocyclopenta[f]indazol-5-yl]methyl}[(2S)-2-hydroxypropyl]amino}sulfonyl)benzoate] registered a Ki of 2.5 nM. For `COC(=O)c1ccccc1CS(=O)(=O)N(CCc1ccccc1F)C[C@H]1CCC2=Cc3c(cnn3-c3ccc(F)cc3)C[C@@]21C` [Example 188, methyl 2-{[([2-(2-fluorophenyl)ethyl]{[(4αR,5S)-1-(4-fluorophenyl)-4α-methyl-1,4,4α,5,6,7-hexahydrocyclopenta[f]indazol-5-yl]methyl}amino)sulfonyl]methyl}benzoate], the Ki is 1.2 nM. With `COC(=O)c1ccccc1S(=O)(=O)N(CCc1ccccc1F)C[C@H]1CCC2=Cc3c(cnn3-c3ccc(F)cc3)C[C@@]21C` [Example 189, methyl 2-[([2-(2-fluorophenyl)ethyl]{[(4αR,5S)-1-(4-fluorophenyl)-4α-methyl-1,4,4α,5,6,7-hexahydrocyclopenta[f]indazol-5-yl]methyl}amino)sulfonyl]benzoate] the figure was 1.1 nM.

The compound `C[C@]12Cc3cnn(-c4ccc(F)cc4)c3C=C1CC[C@@H]2CN(CCc1ccccc1F)S(=O)(=O)Cc1ccccc1C(N)=O` [Example 190, 2-{[([2-(2-fluorophenyl)ethyl]{[(4αR,5S)-1-(4-fluorophenyl)-4α-methyl-1,4,4α,5,6,7-hexahydrocyclopenta[f]indazol-5-yl]methyl}amino)sulfonyl]methyl}benzamide] yielded a Ki of 1.5 nM. With `C[C@]12Cc3cnn(-c4ccc(F)cc4)c3C=C1CC[C@@H]2CN(CC1CCCO1)S(=O)(=O)c1ccc(C(N)=O)cc1` (stereo partly drawn) [Example 191, 4-{[{[(4αR,5S)-1-(4-fluorophenyl)-4α-methyl-1,4,4α,5,6,7-hexahydrocyclopenta[f]indazol-5-yl]methyl}(tetrahydrofuran-2-ylmethyl)amino]sulfonyl}benzamide] the figure was 2 nM; with `C[C@]12Cc3cnn(-c4ccc(F)cc4)c3C=C1CC[C@@H]2CN(Cc1ccccc1F)S(=O)(=O)c1cccc(C(N)=O)c1` [Example 192, 3-[((2-fluorobenzyl){[(4αR,5S)-1-(4-fluorophenyl)-4α-methyl-1,4,4α,5,6,7-hexahydrocyclopenta[f]indazol-5-yl]methyl}amino)sulfonyl]benzamide], 0.9 nM; with `C[C@]12Cc3cnn(-c4ccc(F)cc4)c3C=C1CC[C@@H]2CN(CCCc1ccccc1)S(=O)(=O)CC(F)(F)F` [Example 193, 2,2,2-trifluoro-N-{[(4αR,5S)-1-(4-fluorophenyl)-4α-methyl-1,4,4α,5,6,7-hexahydrocyclopenta[f]indazol-5-yl]methyl}-N-(3-phenylpropyl)ethanesulfonamide], 1 nM. `Cc1noc(C)c1S(=O)(=O)N(CCCc1ccccc1)C[C@H]1CCC2=Cc3c(cnn3-c3ccc(F)cc3)C[C@@]21C` [Example 194, N-{[(4αR,5S)-1-(4-fluorophenyl)-4α-methyl-1,4,4α,5,6,7-hexahydrocyclopenta[f]indazol-5-yl]methyl}-3,5-dimethyl-N-(3-phenylpropyl)isoxazole-4-sulfonamide] displayed a Ki of 1.5 nM. The compound `C[C@]12Cc3cnn(-c4ccc(F)cc4)c3C=C1CC[C@@H]2CN(CCCc1ccccc1)S(=O)(=O)c1ccccc1F` [Example 195, 2-fluoro-N-{[(4αR,5S)-1-(4-fluorophenyl)-4α-methyl-1,4,4α,5,6,7-hexahydrocyclopenta[f]indazol-5-yl]methyl}-N-(3-phenylpropyl)benzenesulfonamide] came in with a Ki of 0.6 nM.

As for `C[C@]12Cc3cnn(-c4ccc(F)cc4)c3C=C1CC[C@@H]2CN(CCc1ccccn1)S(=O)(=O)Cc1ccccc1C(N)=O` [Example 196, 2-({[{[(4αR,5S)-1-(4-fluorophenyl)-4α-methyl-1,4,4α,5,6,7-hexahydrocyclopenta[f]indazol-5-yl]methyl}(2-pyridin-2-ylethyl)amino]sulfonyl}methyl)benzamide], the Ki was 2.7 nM. For `CC([C@H]1CCC2=Cc3c(cnn3-c3ccc(F)cc3)C[C@@]21C)N(CCc1ccccn1)S(=O)(=O)Cc1cccnc1` (stereo partly drawn) [Example 197, N-{1-[(4αR)-1-(4-fluorophenyl)-4α-methyl-1,4,4α,5,6,7-hexahydrocyclopenta[f]indazol-5-yl]ethyl}-1-pyridin-3-yl-N-(2-pyridin-2-ylethyl)methanesulfonamide] the value was 4.4 nM.

`C[C@]12Cc3cnn(-c4ccc(F)cc4)c3C=C1CC[C@@H]2CN(CCO)S(=O)(=O)Cc1ccccc1C(N)=O` [Example 198, 2-({[{[(4αR,5S)-1-(4-fluorophenyl)-4α-methyl-1,4,4α,5,6,7-hexahydrocyclopenta[f]indazol-5-yl]methyl}(2-hydroxyethyl)amino]sulfonyl}methyl)benzamide] showed a Ki of 14.3 nM. With `CC(C)(O)CN(C[C@H]1CCC2=Cc3c(cnn3-c3ccc(F)cc3)C[C@@]21C)S(=O)(=O)c1ccccc1F` [Example 199, 2-fluoro-N-{[(4αR,5S)-1-(4-fluorophenyl)-4α-methyl-1,4,4α,5,6,7-hexahydrocyclopenta[f]indazol-5-yl]methyl}-N-(2-hydroxy-2-methylpropyl)benzenesulfonamide] the figure was 2.4 nM. For `C[C@]12Cc3cnn(-c4ccc(F)cc4)c3C=C1CC[C@@H]2CN(CC1(O)CC1)S(=O)(=O)c1ccccc1F` [Example 200, 2-fluoro-N-{[(4αR,5S)-1-(4-fluorophenyl)-4α-methyl-1,4,4α,5,6,7-hexahydrocyclopenta[f]indazol-5-yl]methyl}-N-[(1-hydroxycyclopropyl)methyl]benzenesulfonamide] the value was 1.8 nM. For `C[C@]12Cc3cnn(-c4ccc(F)cc4)c3C=C1CC[C@@H]2CN(CC1(O)CCCCC1)S(=O)(=O)c1ccccc1F` [Example 201, 2-fluoro-N-{[(4αR,5S)-1-(4-fluorophenyl)-4α-methyl-1,4,4α,5,6,7-hexahydrocyclopenta[f]indazol-5-yl]methyl}-N-[(1-hydroxycyclohexyl)methyl]benzenesulfonamide] the value was 2.3 nM.

(Values after US8299048B2, “Hexahydrocyclopentyl[f]indazole sulfonamides and derivatives thereof as selective glucocorticoid receptor modulators” (Merck Sharp & Dohme Corp., priority 2008, dated 2012).)
